Source: ChEMBL document CHEMBL4665700, “Cytotoxic Bufadienolides from the Leaves of Melianthus major” (J Nat Prod, 2020)
The source made the active and inactive calls. The rule behind the calls is not given here.

What was measured:
Assay type in all cases: functional
CCRF-CEM [1] = experiment: Cytotoxicity against human CCRF-CEM cells assessed as reduction in cell viability after 72 hrs by resazurin dye-based fluorescence assay
MCF7 [2] = experiment: Cytotoxicity against human MCF7 cells assessed as reduction in cell viability after 72 hrs by resazurin dye-based fluorescence assay; conditions: MCF7, 72 h
ADR5000 cell line [3] = experiment: Cytotoxicity against human CEM/ADR5000 cells assessed as reduction in cell viability after 72 hrs by resazurin dye-based fluorescence assay; conditions: ADR5000, 72 h
ADR5000 cell line [4] = experiment: Cytotoxicity against human CEM/ADR5000 cells assessed as reduction in cell viability at 10 uM after 72 hrs by resazurin dye-based fluorescence assay
MCF7 [5] = experiment: Cytotoxicity against human MCF7 cells assessed as reduction in cell viability at 10 uM after 72 hrs by resazurin dye-based fluorescence assay
CCRF-CEM [6] = experiment: Cytotoxicity against human CCRF-CEM cells assessed as reduction in cell viability at 10 uM after 72 hrs by resazurin dye-based fluorescence assay

SMILES	IC50 (CCRF-CEM [1])	IC50 (MCF7 [2])	IC50 (ADR5000 cell line [3])	Activity (ADR5000 cell line [4])	Activity (MCF7 [5])	Activity (CCRF-CEM [6])
CC(=O)O[C@H]1[C@H]2O[C@@]3(C)O[C@@H]1C[C@]1(CC[C@H]4[C@H]5[C@@H]6O[C@@H]6[C@H](c6ccc(=O)oc6)[C@@]5(C)CC[C@@H]4[C@@]21C=O)O3	1600 nM	4300 nM	1800 nM			
CC(=O)O[C@H]1C[C@]2(C=O)[C@H]3CC[C@]4(C)[C@@H](c5ccc(=O)oc5)CC[C@]4(O)[C@@H]3CC[C@]2(OC(C)=O)C[C@H]1OC(C)=O	100 nM	300 nM	100 nM			
C[C@@]12O[C@H]3C[C@@H](O1)[C@]1(C=O)[C@H]4CC[C@]5(C)[C@@H](c6ccc(=O)oc6)CC[C@]5(O)[C@@H]4CC[C@@]1(C3)O2	200 nM	1000 nM	200 nM			
C[C@@]12O[C@H]3C[C@@H](O1)[C@]1(C=O)[C@H]4CC[C@@]5(C)[C@@H]([C@@H]4CC[C@@]1(C3)O2)[C@@H]1O[C@@H]1[C@@H]5c1ccc(=O)oc1	1600 nM	4500 nM	1600 nM			
CC(=O)OC[C@]12[C@H]3C[C@H]4C[C@]1(CC[C@@H]1[C@@H]2CC[C@]2(C)[C@@H](c5ccc(=O)oc5)CC[C@]12O)OC(C)(O4)O3				inactive	inactive	inactive
CC(=O)O[C@H]1C[C@]2(C=O)[C@H]3CC[C@]4(C)[C@@H](c5ccc(=O)oc5)CC[C@]4(O)[C@@H]3CC[C@]2(O)C[C@H]1OC(C)=O	500 nM	3500 nM	500 nM			
C[C@@]12O[C@H]3C[C@@H](O1)[C@]1(C=O)[C@H]4CC[C@]5(C)[C@@H](c6ccc(=O)oc6)[C@@H](O)C[C@]5(O)[C@@H]4CC[C@@]1(C3)O2	600 nM	3100 nM	800 nM			
CC(=O)OC[C@]12[C@@H]3OC4(C)O[C@H](C[C@]1(CC[C@@H]1[C@@H]2CC[C@]2(C)[C@@H](c5ccc(=O)oc5)CC[C@]12O)O4)[C@H]3O				inactive	inactive	inactive
COc1cccc2c1C(=O)c1c(O)c3c(c(O)c1C2=O)C[C@@](O)(C(=O)CO)C[C@@H]3O[C@H]1C[C@H](N)[C@H](O)[C@H](C)O1 [DOXORUBICIN]	20 nM	180 nM				
CC(=O)OC[C@]12[C@@H]3OC4(C)O[C@H](C[C@]1(CC[C@@H]1[C@@H]2CC[C@]2(C)[C@@H](c5ccc(=O)oc5)[C@H]5O[C@H]5[C@]12O)O4)[C@H]3OC(C)=O				inactive	inactive	inactive
